From US5726203A, “Qinghaosu derivatives against AIDS” (priority 1993, dated 1998)

Tests used:
[1] = cited from earlier work
U937 HIV-1 [2] = assay: Inhibition effect on HIV-1 infected U937 cells, activity of reverse transcriptase; assay type: cell-based; details: control 24502
Excerpt: (§1) Furthermore, a part of the compounds according to the present invention were used to test their inhibition effect on U937 cell line (macrophage cell line)according to the methods in Experiment 1.

[3] = system: virus within infected macrophages; details: cited from earlier work
U937 HIV-1 [4] = assay: Inhibition effect on HIV-1 infected U937 cells (macrophage cell line), HIV antigen test (IE); assay type: cell-based; details: for Antigen test (IE): U937 HIV-1
Procedure: (§2) a. Freshly cultured MT4 cells (5×10^5 /ml) were co-cultivated with the virus fluid (10^3 TCID50 /ml) in a CO2 incubator at 37° C. for 1-1.5 hours. RPMI 1640 complete medium (containing 10% Bovine serum and antibiotics, such as penicillin) was used to wash the unbound virus.
(§3) Complete medium was added to correct the concentration for use.
(§4) The experiment was carried out on the plates with 96 wells. 0.1 ml of the above-mentioned infected MT4 cell suspension was added into each well, and then 0.1 ml of various concentrations of the drugs were added. […] Each concentration of the drugs was added into two wells. Both the experiment group and the control group were incubated in a CO2 incubator at 37° C. The drug solution were changed 3 days later, and the following observations were carried out 6 days afterwards.
(§5) c. Determination of the virus antigen expression. The immunoenzymatic method was used to examine the virus antigen expression. Cells from each group were separately smeared in two wells. They were fixed with cold acetone, HIV-positive serum was dropped into the wells. After incubated in a CO2 incubator at 37° C. for 30 minutes, they were washed with PBS for 3 times. Enzyme-labelled SPA was dropped into the wells. They were incubated in the same condition for 30 minutes, washed with PBS for 3 times, and then put in substrate solution to stain for 2-3 minutes, washed with distilled water, and observed under microscope. Normal cells were colorless, whereas virus-carrying cells appeared browrish red.
as §1

HIV-1 (MT4) = assay: Anti-HIV effect on MT4 cells, virus antigen expression (immunoenzymatic method); assay type: cell-based
Excerpt: The virus used was HIV-1 which had been obtained from Professor Montagnier of the Pastear Institute, France. The virus titer used in the experiment was 1×10^4 TCID50 /ml. The cell culture used was CEM cell line which was cultivated in the HIV laboratory of Institute of Virology, Chinese Academy of Preventive Medicine, for cultivation storage of HIV-1.
The compounds used in the experiment were qinghaosu, dihydroqinghaosu, Artesunate, Artemether, dihydroqinghaosu-methylcarbamate, dihydroqinghaosu-benzenecarbamate, qinghaosu-morpholinyl propylether maleate, dihydroqinghaosu-diethyl amino ethyl ether maleate, deoxyqinghaosu-morpholinyl ethyl ether maleate, qinghaosu-morpholinyl propanol ether maleate, qinghaosu-3,5-dimonpholinyl methyl-4-hydroxy benzyl ether maleate, dihydroqinghaosu-m-chlorobenzoate, qinghaosu-3-pyrrolidinylmethyl-4-hydroxybenzoate oxalate, and qinghaosu-3-morpholinylmethyl-4-hydroxybenzoate oxalate. […] The concentration of the original solution of these compounds were all 1 mg/ml.
as §2, §3, §4
b. Observation on the growth situation of cells. Trypan blue dye was used to observe the quantity of live cells in each group.
as §5
The mark used were as follows:
The experiment was repeated two to three times.
The concentration of the original fluid of these compounds were all 1 mg/ml. 0.1 ml was taken and added into 0.1 ml of virus-carrying cell suspension, thus the reaction concentrations were as follows: in the original fluid group, 0.1 mg/0.2 ml, i.e., 0.5 mg/ml; in 1×10^-1group, 0.05 mg/ml; in 1×10^-2 group, 0.005 mg/ml; in 1×10^-3 group, 0.0005 mg/ml, i.e., 0.5 μg/ml; and on the analogy of this.

HIV = details: cited from earlier work
[5] = Subacute toxicologic study; details: in vivo, read-out: basic safe dosage
Acute toxicity in mice = assay type: in vivo; details: for LD50: mouse, in vivo, po
Procedure: Animals: Hybrid swiss strain mice (provided by Animal House of Institute of Chinese Mateia Media, China Academy of Traditional Chinese Medicine), 20-22 grams, less than 6 weeks age of both sexes fed in laboretory for 3-5 days observation and a random taking food and drinking.
Drugs: Dihydroqinghaosu-methylcarbamate and dihydroqinghaosu-benzenecarbamate.
Above two drugs in powder form were dissolved into peanut oil. The biggest dose were 2000 mg/kg and 2161 mg/kg respectively. The distances between two dose groups were 0.7 and 0.68 respectively, with 5 dose groups each drugs.
Method: The mice were given single dose of above compound respectively intragastrically, the acute intoxication manifestrations were observed the LD value (LD5, LD50 and LD95) and B value were determined by three days mortality.

Plasmodium Berghei = assay: Peters' four day inhibition test in mice, erythrocytic stage of Plasmodium Berghei; assay type: in vivo; details: once a day D0-D3, Hybrid Kunming strain mice, read-out: SD50 (the source's name)
Excerpt: Effect on Erythrocytic Stage of Plasmodium Berghei 1. "Four day inhibition test" in mice To determinate the SD50 with Peters' "four day inhibition test". Hybrid Kunming strain mice, body weight 18-22 g, were inculated with 1×10^7 parasites infected RBC intraperitoneally on D0. Dihydroqinghaosu-methylcarbamate, dihydroqinghaosu-butylcarbamate, dihydroqinghaosu-benzenecarbamate and dihydroqinghaosu-4-nitrobenzenecarbamate with different concentration were given once a day from D0 -D3. Blood smears from mouse's tail were made on D4, stained with Gimsa reagent and examined under microscope to count the infected and uninfected erthrocyte to get infected rate. Inhibitory rates of different dosages were calculated by following formula. The SD50 was calculated by the simplified probit analysis: [formula]

HIV-infected macrophages = details: cited from earlier work
[6] = F + M, single dose intragastrically
[7] = F, single dose intragastrically
[8] = M, single dose intragastrically

Cc1cn([C@H]2C[C@H](N=[N+]=[N-])[C@@H](CO)O2)c(=O)[nH]c1=O [AZT, 3'-azido-3'-deoxythymidine, reference compound]
toxicity after use ([1]; 4-6 weeks after the use of AZT): inhibition of bone marrow appears, then severe anemia develops | Activity of reverse transcription (CPM) (U937 HIV-1 [2]; 1 μg/ml): 10865 CPM | inhibitory effect on the virus within infected macrophages [3]: does not exert inhibitory effect on the virus within infected macrophages | Antigen test (IE) (U937 HIV-1 [4]; 1 μg/ml): + (there were 2-3 or more positive cells in the whole well) | inhibition on U937 infected HIV-1 (U937 HIV-1 [4]; from Table 2): does not show the inhibition | effect on HIV-1 (MT4), virus antigen expression (HIV-1 (MT4); 1 × 10^-1 (50 μg/ml)): - (positive cells were not seen in the whole well) | virus-carrying (pink) cells on the smear (HIV-1 (MT4); 1×10^-1, 1×10^-2, 1×10^-3 group): entirely no pink cells | effect on HIV-1 (MT4), virus antigen expression (HIV-1 (MT4); 1 × 10^-2 (5 μg/ml)): - (positive cells were not seen in the whole well) | effect on HIV-1 (MT4), virus antigen expression (HIV-1 (MT4); 1 × 10^-3 (0.5 μg/ml)): - (positive cells were not seen in the whole well) | anti-HIV activity in vitro (HIV): found to possess anti-HIV activity in vitro

CC1CCC2C(C)C(OC(=O)Nc3ccccc3)OC3OC4(C)CCC1C32OO4 (stereo not shown) [Dihydroqinghaosu-benzenecarbamate]
NOAEL [5]: 54 mg/kg/day | Death distribution of mice, exp./death (Acute toxicity in mice; 480 mg/kg, female): 6/0 | Death distribution of mice, exp./death (Acute toxicity in mice; 480 mg/kg, female + male): 12/1 | Death distribution of mice, exp./death (Acute toxicity in mice; 480 mg/kg, male): 6/1 | Death distribution of mice, exp./death (Acute toxicity in mice; 686 mg/kg, female): 6/1 | Death distribution of mice, exp./death (Acute toxicity in mice; 686 mg/kg, female + male): 12/3 | Death distribution of mice, exp./death (Acute toxicity in mice; 686 mg/kg, male): 6/2 | Death distribution of mice, exp./death (Acute toxicity in mice; 980 mg/kg, female): 6/2 | Death distribution of mice, exp./death (Acute toxicity in mice; 980 mg/kg, female + male): 12/4 | Death distribution of mice, exp./death (Acute toxicity in mice; 980 mg/kg, male): 6/2 | Death distribution of mice, exp./death (Acute toxicity in mice; 1400 mg/kg, female): 6/4 | Death distribution of mice, exp./death (Acute toxicity in mice; 1400 mg/kg, female + male): 12/7 | Death distribution of mice, exp./death (Acute toxicity in mice; 1400 mg/kg, male): 6/3 | Death distribution of mice, exp./death (Acute toxicity in mice; 2000 mg/kg, female): 6/6 | Death distribution of mice, exp./death (Acute toxicity in mice; 2000 mg/kg, female + male): 12/12 | Death distribution of mice, exp./death (Acute toxicity in mice; 2000 mg/kg, male): 6/6 | LD5 (Acute toxicity in mice; [6]): 463.33 mg/kg | LD95 (Acute toxicity in mice; [6]): 2452.08 mg/kg | slope (B) (Acute toxicity in mice; [6]): 4.546 | LD5 (Acute toxicity in mice; [7]): 603.91 mg/kg | LD95 (Acute toxicity in mice; [7]): 1993.51 mg/kg | slope (B) (Acute toxicity in mice; [7]): 6.343 | LD5 (Acute toxicity in mice; [8]): 352.10 mg/kg | LD95 (Acute toxicity in mice; [8]): 3069.59 mg/kg | slope (B) (Acute toxicity in mice; [8]): 3.498 | LD50 (Acute toxicity in mice; [6]): 1070 mg/kg | LD50 (Acute toxicity in mice; [7]): 1100 mg/kg | LD50 (Acute toxicity in mice; P.O. (per os)): 1060 mg/kg | LD50 (Acute toxicity in mice; single dose intragastrically): 1040 mg/kg | Activity of reverse transcription (CPM) (U937 HIV-1 [2]; 50 μg/ml): 2305 CPM | Antigen test (IE) (U937 HIV-1 [4]; 50 μg/ml): - (positive cells were not seen in the whole well) | effect on HIV-1 (MT4), virus antigen expression (HIV-1 (MT4); 1 × 10^-1 (50 μg/ml)): - (positive cells were not seen in the whole well) | effect on HIV-1 (MT4), virus antigen expression (HIV-1 (MT4); 1 × 10^-2 (5 μg/ml)): - (positive cells were not seen in the whole well) | effect on HIV-1 (MT4), virus antigen expression (HIV-1 (MT4); 1 × 10^-3 (0.5 μg/ml)): - (positive cells were not seen in the whole well) | effect on HIV-1 (MT4), virus antigen expression (HIV-1 (MT4); 1 × 10^-4 (0.05 μg/ml)): ± (there were only 1-2 doubtful positive cells in whole well) | inhibition on HIV (HIV-1 (MT4); according to Table 1): distinct inhibition on HIV | ED50 (Plasmodium Berghei): 0.29 mg/kg

Trichosanthin
neurotoxicity in clinical trial ([1]; clinical trial): neurotoxicity in clinical trial, and in severe cases temporary dementia and even coma appeared | toxic substance from treated HIV-infected macrophages (HIV-infected macrophages): produced and released a soluble toxic substance which might exert serious destructive effect to human brain cells
